Data on 5 compounds can be found in ChEMBL document CHEMBL1201862, “PubChem BioAssay data set” (2004).

Experiment [1] deals with HEK293. Kind of experiment: cells. The following applies: Homo sapiens. The class given is functional, cell-based.
In experiment [2] the target is Nuclear receptor subfamily 0 group B member 1 (Homo sapiens, UniProt P51843). In words: Luminescence-based cell-based high throughput dose response assay for inhibitors of the orphan nuclear receptor subfamily 0, group B, member 1 (DAX1; NR0B1). [Related pubchem assays (depositor defined):AID504766, AID504790]. The format is functional.
Experiment [3] concerns the target E3 ubiquitin-protein ligase Mdm2 (Homo sapiens, UniProt Q00987). Kind of experiment: enhancers of MDM2-luciferase reporter signal, concentration-effect titration, project on inhibitors of MDM2 ubiquitin ligase, cellular assay, luminescent readout, 384-well plate format (AID 1394).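 Further: MDM2 E3 inhibitors raise luminescence so EC50 is for signal enhancement.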 The format is functional.
Experiment [4] addresses Induced myeloid leukemia cell differentiation protein Mcl-1 (Homo sapiens, UniProt Q07820). The class given is functional.
The test system of experiment [5] is Vero. Kind of experiment: Vero cell cytotoxicity, cytotoxicity control for flavivirus capping enzyme inhibitors (AID 588742). The class given is functional. The conditions noted are these: Chlorocebus sabaeus.
The target of experiment [6] is Beta-arrestin-1 (Homo sapiens, UniProt P49407). In words: inhibitors of arrestin peptide binding to AP2, dose response, biochemical, cherry pick 1, beta2-adaptin appendage, flow cytometry (AID 588783). The class given is functional.
In experiment [7] the target is Genome polyprotein (dengue virus type 2, UniProt P29990). Kind of experiment: Dengue-2 NS5 methyltransferase inhibitors, primary screen, biochemical, confirmation dose response (AID 588689). The format is functional.
Experiment [8] in a line: HeLa cell cytotoxicity, dose response, cytotoxicity control for MgcRacGAP inhibitor project (AID 624300). The class given is functional.
A short description of experiment [9]: THP-1 cell cytotoxicity, dose response, cytotoxicity control for Vif-APOBEC3G degradation inhibitor project, THP-1 cells (AID 1117359). The format is functional. The following applies: Human immunodeficiency virus 1, THP-1.
Experiment [10] addresses Delta-type opioid receptor (Homo sapiens, UniProt P41143). Kind of experiment: Counterscreen for agonists of heterodimerization of the mu 1 (OPRM1) and delta 1 (OPRD1) opioid receptors: Luminescence-based cell-based high throughput dose response assay to identify agonists of OPRD1 homodimerization. [Related pubchem assays (depositor defined):AID504326, AID504355, AID504692, AID504904, AID504905]. The class given is functional. (The purpose of a counterscreen is to sort out artefacts and off-target activity.)

The target of experiment [11] is Mu-type opioid receptor (Homo sapiens, UniProt P35372). In words: Counterscreen for agonists of heterodimerization of the mu 1 (OPRM1) and delta 1 (OPRD1) opioid receptors: Luminescence-based cell-based high throughput dose response assay to identify agonists of OPRM1 homodimerization. The class given is functional.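 Further: U2OS cells expressing OPRM1 and beta-arrestin as split beta-galactosidase partners.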
In experiment [12] the target is 5-hydroxytryptamine receptor 5A (Homo sapiens, UniProt P47898). In words: Counterscreen for agonists of OPRM1-OPRD1 heterodimerization: luminescence-based cell-based high throughput dose response assay to identify agonists of 5-hydroxytryptamine (serotonin) 5A receptor (HTR5A). [Related pubchem assays (depositor defined):AID504326, AID504355, AID504692, AID504904, AID504905]. The format is functional.

The target in experiment [13] is Beta-adrenergic receptor kinase 1 (Homo sapiens, UniProt P25098). Kind of experiment: aptamer displacement from bead-bound GRK2 – biochemical, cherry pick 1, bead flow cytometry, dose response (AID 504500). (In flow cytometry, cells or beads pass a laser one at a time.)
Experiment [14] has as its target T1, Carboxy-terminal domain RNA polymerase II polypeptide A small phosphatase 1 (Homo sapiens, UniProt Q9GZU7).
T1 sequence (Q9GZU7 whole entry): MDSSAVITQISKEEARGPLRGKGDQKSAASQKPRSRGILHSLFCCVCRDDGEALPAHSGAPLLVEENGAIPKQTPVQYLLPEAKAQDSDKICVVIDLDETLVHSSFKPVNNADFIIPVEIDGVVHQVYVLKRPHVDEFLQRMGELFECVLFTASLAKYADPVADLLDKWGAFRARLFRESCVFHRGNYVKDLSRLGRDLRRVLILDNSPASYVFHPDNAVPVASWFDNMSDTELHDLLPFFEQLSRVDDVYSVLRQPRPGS
In words: inhibitors of CTDSP1, concentration-response testing, biochemical assay, absorbance-based, actives from ultra-high-throughput screening (AID 540297). The class given is functional.

In experiment [15] the target is T2, Caspase-6 (Homo sapiens, UniProt P55212).
T2 sequence (P55212 whole entry): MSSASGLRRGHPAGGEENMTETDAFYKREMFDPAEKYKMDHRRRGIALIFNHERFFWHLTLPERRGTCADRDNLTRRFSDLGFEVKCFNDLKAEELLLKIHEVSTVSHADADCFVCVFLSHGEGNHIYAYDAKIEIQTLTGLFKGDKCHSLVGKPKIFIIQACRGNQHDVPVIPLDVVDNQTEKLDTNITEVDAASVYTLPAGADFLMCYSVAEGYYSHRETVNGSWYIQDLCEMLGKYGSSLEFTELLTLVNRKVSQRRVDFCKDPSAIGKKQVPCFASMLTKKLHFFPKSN
In words: human caspase-6 inhibitors, dose response, biochemical, VEID-R110 fluorescence, cherry-pick (AID 720632).

In experiment [16] the target is Caspase-7 (Homo sapiens, UniProt P55210). Kind of experiment: human caspase-7 inhibitors, dose response, selectivity assay for caspase-6 inhibitor project, biochemical, DEVD-R110 fluorescence, cherry-pick (AID 743295). The format is […].
Experiment [17] addresses Caspase-8 (Homo sapiens, UniProt Q14790). In words: caspase-8 inhibition counter-screen, dose response, selectivity assay for caspase-6 inhibitor project, biochemical, Z-IETD-R110 fluorescence, cherry-picked samples (AID 743294).
Experiment [18] has as its target T3, Hexokinase-1 (Homo sapiens, UniProt P19367).
T3 sequence (P19367 whole entry): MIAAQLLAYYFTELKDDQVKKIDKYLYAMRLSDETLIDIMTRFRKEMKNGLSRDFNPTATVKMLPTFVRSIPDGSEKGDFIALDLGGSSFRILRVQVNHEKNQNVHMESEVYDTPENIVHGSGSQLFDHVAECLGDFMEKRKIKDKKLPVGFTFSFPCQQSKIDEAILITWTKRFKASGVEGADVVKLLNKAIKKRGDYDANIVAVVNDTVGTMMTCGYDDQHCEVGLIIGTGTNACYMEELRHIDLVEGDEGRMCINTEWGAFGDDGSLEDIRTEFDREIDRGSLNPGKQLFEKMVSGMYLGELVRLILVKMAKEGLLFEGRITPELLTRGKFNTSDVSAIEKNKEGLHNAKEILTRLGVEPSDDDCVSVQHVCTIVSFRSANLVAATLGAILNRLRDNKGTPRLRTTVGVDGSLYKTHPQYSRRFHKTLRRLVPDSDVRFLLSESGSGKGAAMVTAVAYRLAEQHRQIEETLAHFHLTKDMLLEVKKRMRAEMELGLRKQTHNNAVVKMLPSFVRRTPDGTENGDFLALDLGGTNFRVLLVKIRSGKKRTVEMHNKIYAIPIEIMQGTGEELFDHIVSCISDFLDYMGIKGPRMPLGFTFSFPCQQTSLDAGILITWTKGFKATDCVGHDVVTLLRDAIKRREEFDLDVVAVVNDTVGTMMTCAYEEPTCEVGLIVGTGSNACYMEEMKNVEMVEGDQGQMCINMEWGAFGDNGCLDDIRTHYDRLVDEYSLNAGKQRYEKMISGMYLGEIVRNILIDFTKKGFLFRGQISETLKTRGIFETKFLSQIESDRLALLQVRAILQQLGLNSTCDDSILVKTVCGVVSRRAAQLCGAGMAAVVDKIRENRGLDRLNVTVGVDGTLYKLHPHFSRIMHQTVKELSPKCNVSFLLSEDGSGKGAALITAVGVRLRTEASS
In words: SAR analysis of small molecule inhibitors of hexokinase domain containing I (HKDC1) in the hexokinase 1 selectivity assay. [Related pubchem assays (depositor defined):AID493160, AID493190]. The format is functional.

For experiment [19], the target named is T4, Hexokinase HKDC1 (Homo sapiens, UniProt Q2TB90).
T4 sequence (Q2TB90 whole entry): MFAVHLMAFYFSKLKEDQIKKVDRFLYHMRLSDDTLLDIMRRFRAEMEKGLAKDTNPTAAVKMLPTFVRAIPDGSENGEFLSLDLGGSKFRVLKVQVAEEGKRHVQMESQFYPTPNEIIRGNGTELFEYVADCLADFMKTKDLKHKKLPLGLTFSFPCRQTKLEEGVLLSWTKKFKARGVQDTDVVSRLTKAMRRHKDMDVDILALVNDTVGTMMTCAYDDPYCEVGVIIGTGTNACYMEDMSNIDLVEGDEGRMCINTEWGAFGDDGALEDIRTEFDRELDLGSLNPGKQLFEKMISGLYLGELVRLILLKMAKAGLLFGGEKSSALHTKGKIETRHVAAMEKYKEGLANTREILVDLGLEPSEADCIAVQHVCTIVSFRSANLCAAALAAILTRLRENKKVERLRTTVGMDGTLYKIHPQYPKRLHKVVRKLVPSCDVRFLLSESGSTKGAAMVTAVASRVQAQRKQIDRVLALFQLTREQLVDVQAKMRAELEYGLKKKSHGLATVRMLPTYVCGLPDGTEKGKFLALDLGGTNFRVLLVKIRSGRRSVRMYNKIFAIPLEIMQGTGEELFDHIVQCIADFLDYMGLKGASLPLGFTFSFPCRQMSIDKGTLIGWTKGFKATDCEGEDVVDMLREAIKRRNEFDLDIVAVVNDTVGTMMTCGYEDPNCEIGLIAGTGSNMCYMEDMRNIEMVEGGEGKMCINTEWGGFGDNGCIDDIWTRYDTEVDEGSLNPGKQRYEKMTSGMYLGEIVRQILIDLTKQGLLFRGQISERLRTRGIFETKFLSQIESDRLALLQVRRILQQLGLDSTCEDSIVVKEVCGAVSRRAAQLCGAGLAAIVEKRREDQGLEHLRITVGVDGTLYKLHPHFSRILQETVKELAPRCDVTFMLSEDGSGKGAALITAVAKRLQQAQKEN
Kind of experiment: SAR analysis of small molecule inhibitors of hexokinase domain containing I (HKDC1). [Related pubchem assays (depositor defined):AID493160, AID493190]. The class given is functional.

Active and inactive are the calls of the source. A value given as a limit tells only on which side of the number the result lay.

Caspase-8, sequence (Q14790 217-374 limits assumed): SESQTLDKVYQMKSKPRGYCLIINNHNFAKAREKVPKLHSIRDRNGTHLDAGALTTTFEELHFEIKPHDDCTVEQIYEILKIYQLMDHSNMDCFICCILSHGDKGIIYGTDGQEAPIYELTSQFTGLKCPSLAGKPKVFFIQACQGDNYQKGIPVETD
Caspase-8, sequence (Q14790 385-479 limits assumed): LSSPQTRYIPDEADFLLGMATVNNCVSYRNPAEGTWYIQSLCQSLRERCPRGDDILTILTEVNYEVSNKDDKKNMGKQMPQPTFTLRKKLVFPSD
Caspase-7, sequence (P55210 24-198 limits assumed): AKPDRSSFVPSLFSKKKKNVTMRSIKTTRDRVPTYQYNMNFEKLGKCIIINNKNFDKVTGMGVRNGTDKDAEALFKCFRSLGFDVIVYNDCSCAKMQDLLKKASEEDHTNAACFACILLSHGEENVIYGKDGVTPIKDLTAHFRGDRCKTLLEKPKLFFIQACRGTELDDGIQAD
Caspase-7, sequence (P55210 207-303 limits assumed): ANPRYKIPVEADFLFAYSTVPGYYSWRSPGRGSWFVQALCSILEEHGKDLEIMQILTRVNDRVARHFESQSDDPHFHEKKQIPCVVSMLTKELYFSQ
Mu-type opioid receptor, sequence (P35372 whole entry): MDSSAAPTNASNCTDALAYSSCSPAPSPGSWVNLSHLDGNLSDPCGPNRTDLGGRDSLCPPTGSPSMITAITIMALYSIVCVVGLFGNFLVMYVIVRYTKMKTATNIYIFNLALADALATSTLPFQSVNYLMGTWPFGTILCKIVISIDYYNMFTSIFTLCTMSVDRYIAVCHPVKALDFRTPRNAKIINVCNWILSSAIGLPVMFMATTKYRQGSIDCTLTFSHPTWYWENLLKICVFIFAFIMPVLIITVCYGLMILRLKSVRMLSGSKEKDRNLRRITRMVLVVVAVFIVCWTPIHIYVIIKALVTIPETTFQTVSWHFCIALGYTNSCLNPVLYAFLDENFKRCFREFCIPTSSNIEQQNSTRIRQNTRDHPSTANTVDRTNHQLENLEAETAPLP
Induced myeloid leukemia cell differentiation protein Mcl-1, sequence (Q07820 whole entry): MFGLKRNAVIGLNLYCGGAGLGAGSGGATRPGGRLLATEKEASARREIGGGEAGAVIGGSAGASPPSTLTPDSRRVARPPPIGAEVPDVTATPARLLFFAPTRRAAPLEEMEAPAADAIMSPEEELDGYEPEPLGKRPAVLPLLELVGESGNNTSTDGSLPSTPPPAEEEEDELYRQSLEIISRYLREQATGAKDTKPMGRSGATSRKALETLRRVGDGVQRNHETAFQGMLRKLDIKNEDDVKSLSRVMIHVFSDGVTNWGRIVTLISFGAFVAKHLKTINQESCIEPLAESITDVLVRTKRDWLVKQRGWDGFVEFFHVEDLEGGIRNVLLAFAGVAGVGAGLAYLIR
Delta-type opioid receptor, sequence (P41143 whole entry): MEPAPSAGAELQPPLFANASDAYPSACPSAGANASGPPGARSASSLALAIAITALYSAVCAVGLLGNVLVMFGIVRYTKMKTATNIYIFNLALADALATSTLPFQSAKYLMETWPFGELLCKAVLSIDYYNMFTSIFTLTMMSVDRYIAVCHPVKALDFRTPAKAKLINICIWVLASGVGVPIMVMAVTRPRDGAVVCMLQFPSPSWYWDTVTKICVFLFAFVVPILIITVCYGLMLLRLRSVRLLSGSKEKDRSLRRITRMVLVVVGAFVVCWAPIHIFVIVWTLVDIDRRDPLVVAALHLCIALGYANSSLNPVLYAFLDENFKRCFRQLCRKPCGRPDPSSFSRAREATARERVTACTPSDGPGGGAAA
Beta-adrenergic receptor kinase 1, sequence (P25098 whole entry, the tested form may be a part): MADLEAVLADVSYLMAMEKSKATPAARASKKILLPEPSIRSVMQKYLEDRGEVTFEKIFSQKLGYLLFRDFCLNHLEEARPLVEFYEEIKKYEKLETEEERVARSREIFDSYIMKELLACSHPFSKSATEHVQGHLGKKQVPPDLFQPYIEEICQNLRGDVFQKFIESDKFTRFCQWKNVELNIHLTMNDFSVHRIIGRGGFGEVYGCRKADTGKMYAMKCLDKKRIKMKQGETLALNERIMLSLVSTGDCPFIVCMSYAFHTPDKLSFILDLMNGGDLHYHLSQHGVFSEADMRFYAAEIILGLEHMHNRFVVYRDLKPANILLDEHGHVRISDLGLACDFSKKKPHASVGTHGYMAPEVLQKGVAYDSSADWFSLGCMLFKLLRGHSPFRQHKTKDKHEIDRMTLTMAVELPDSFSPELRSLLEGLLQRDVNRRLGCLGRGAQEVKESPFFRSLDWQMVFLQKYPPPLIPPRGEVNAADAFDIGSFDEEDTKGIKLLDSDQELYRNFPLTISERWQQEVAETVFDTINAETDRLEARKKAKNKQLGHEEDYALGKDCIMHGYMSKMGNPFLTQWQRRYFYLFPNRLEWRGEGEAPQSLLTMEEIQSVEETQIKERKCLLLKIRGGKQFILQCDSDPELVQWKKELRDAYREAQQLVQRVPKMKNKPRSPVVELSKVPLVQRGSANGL
Genome polyprotein, sequence (P29990 2492-3391 limits assumed): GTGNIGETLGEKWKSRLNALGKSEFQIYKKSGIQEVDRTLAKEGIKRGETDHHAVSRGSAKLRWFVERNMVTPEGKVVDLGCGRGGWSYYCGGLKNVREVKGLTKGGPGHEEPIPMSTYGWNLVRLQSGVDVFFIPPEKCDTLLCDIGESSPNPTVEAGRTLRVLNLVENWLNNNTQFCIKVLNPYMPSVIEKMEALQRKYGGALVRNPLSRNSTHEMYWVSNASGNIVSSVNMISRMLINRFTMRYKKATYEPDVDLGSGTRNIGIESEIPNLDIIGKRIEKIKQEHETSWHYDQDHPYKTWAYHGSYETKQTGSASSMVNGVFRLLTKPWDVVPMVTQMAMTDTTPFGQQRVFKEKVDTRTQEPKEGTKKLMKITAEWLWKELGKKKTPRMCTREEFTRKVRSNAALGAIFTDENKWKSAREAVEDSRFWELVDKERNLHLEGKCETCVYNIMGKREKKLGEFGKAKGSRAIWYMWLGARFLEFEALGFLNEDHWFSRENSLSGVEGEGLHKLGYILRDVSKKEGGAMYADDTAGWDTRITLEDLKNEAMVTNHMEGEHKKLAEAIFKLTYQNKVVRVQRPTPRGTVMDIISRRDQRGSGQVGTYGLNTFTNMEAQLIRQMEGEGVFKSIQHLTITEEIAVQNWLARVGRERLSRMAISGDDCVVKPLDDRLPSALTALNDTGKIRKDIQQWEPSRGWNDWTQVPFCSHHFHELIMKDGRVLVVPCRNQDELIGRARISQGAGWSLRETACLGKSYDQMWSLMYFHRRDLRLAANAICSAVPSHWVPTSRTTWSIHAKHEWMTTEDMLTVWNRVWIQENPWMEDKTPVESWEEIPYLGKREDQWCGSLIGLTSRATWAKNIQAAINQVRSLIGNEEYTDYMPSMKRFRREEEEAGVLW
5-hydroxytryptamine receptor 5A, sequence (P47898 whole entry): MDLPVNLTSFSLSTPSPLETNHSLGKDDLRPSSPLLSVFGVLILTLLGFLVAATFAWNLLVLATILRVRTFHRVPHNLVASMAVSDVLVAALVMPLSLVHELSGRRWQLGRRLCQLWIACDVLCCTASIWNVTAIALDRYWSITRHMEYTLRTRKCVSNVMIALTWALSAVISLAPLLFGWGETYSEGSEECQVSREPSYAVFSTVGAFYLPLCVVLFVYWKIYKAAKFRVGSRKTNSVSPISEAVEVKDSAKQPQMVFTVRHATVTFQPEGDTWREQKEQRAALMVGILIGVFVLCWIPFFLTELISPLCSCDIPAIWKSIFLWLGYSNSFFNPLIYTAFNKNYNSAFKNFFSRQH
Beta-arrestin-1, sequence (P49407 whole entry): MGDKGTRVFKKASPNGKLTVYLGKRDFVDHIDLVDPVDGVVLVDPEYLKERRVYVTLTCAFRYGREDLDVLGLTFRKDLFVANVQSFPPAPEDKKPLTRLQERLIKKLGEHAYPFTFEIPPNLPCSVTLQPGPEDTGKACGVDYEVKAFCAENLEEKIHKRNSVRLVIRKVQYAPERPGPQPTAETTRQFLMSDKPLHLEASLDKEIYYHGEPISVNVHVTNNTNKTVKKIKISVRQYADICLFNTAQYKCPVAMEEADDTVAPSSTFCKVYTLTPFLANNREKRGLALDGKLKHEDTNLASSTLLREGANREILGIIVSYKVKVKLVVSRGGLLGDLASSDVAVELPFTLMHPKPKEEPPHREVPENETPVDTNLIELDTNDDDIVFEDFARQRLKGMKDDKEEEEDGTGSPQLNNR
E3 ubiquitin-protein ligase Mdm2, sequence (Q00987 whole entry): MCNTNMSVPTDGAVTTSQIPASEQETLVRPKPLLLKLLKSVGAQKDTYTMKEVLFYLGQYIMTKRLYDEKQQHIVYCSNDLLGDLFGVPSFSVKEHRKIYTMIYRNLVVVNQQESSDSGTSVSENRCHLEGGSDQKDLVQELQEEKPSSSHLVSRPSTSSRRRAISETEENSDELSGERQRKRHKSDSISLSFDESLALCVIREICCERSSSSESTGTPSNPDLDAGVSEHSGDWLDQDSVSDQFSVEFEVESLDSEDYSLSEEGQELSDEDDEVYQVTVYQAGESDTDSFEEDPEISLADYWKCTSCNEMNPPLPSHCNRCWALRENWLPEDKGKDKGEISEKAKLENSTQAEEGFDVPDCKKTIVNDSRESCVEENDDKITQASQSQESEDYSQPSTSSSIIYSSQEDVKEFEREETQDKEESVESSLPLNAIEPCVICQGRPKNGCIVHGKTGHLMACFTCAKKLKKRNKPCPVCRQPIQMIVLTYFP

Take `COc1ccccc1NC(=O)Nc1ccc2c(c1)OCCO2`: the IC50 in [1] and in [2] was > 67.5 µM (inactive) throughout.
Turning to `Cc1cccc2c1c1ccc3c(c1n2C)C(=O)C=CC3=O`, the EC50 in experiment [3] is 1.03 µM (active). Moreover, the half-inhibitory concentration (IC50) in [4] was 3.22 µM (active); in [6] it was 7.34 µM (active); in experiment [7], 33.5 µM (active). Moreover, the half-maximal cytotoxic concentration (CC50) in experiment [5] is 34.7 µM (active); in experiment [8] it was 100 µM (active); in [9], 14.1 µM (active).
Turning to `Cc1c(CCOC(=O)c2ccccc2)sc[n+]1CC(=O)c1ccc(Br)cc1`, the EC50 in experiment [10], in [11] and in experiment [12] was > 92.5 µM (inactive) each time.
Consider `CCCN(C(=O)c1cccc(-n2cccc2)c1)c1c(N)n(Cc2ccccc2)c(=O)[nH]c1=O`, for which the concentration for a half-maximal effect (EC50) in experiment [13] is 0.72 µM (active). In addition, the 50% inhibitory concentration (IC50) in [14] is 6.44 µM (active). For the same compound, the concentration at half-maximal activity (AC50) is 3.75 µM (active) in experiment [15], > 70 µM (inactive) in experiment [16] and 58.8 µM (active) in [17].
On to `O=c1c2ccccc2nc(/C=C/c2ccc3c(c2)OCO3)n1Cc1ccccc1`, for which the IC50 in experiment [18] and in experiment [19] was > 80 µM (inactive) in each case.

A word on the IC50: it is the point on the concentration scale where inhibition reaches its midpoint. Broadly, the EC50 is the concentration needed to bring the measured effect to its halfway point. The term CC50 denotes the concentration that lowers cell viability or growth by half. As a reminder, the AC50 is the midpoint of the concentration-response curve, whichever way the signal moves.
